A word on the pKa: it is the pH at which an ionisable group is half protonated. A low value points to a stronger acid or weaker base. By logP is commonly meant a log measure of how a compound divides between an organic and an aqueous phase. Broadly, the solubility is the dissolved amount per volume that the medium holds.

Where two headings read alike, the source gives them in different places.

The text below walks through data of patent US20090221687A1, “Tetracyclic Monoamine Reuptake Inhibitors for Treatment of Cns Diseases and Disorders” (priority 2005, published 2009).

Data set [1] can be described thus: pKa. The format is physicochemical.
Data set [2] in a line: logP. Format: physicochemical.
Data set [3] can be described thus: solubility. The format is physicochemical. The note with it: at 25° C. and ionic strength 0.15 M; read-out: solubility (S).
Data set [4] concerns the target T1, Norepinephrine Transporter (NET) (Homo sapiens, UniProt P23975).
T1 construct: expressed in transfected cells; host or cells: MDCK cells
The note with it: read-out: KD of the radioligand; human recombinant MDCK cells; historical value for the KD of the ligand; cited from earlier work.

For data set [5], the target named is T2, Serotonin Transporter (SERT) (Homo sapiens, UniProt P31645).
T2 construct: expressed in transfected cells; host or cells: HEK-293 cells
T2 sequence (P31645 whole entry): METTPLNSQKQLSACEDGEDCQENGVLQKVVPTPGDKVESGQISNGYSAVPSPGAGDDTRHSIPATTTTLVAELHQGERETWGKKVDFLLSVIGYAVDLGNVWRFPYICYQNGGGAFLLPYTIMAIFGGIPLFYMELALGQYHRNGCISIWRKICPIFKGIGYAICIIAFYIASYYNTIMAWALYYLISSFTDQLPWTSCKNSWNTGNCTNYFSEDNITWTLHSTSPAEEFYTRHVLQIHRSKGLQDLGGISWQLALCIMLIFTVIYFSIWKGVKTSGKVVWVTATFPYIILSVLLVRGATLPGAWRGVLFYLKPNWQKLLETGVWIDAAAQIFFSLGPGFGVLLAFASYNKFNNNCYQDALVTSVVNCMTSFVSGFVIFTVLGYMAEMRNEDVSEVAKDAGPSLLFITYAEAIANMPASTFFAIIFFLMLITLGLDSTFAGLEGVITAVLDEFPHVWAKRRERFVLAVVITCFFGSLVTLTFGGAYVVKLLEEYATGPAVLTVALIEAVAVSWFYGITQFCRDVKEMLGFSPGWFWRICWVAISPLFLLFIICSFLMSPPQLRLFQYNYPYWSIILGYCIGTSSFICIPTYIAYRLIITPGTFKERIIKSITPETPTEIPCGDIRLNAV
The note with it: human recombinant HEK-293 cells, historical value for the KD of the ligand, cited from earlier work.

The test system of data set [6] is mice. In words: Tail-suspension test in mice: evaluation of antidepressive efficacy. Format: in vivo. As to conditions: 10 mg/kg i.p., 30 min prior to testing, vehicle control 70%. The text has this: The aim of this study was to evaluate potential antidepressant activity of selected compounds Formula I. The tail suspension test has been routinely employed to test potential antidepressant compounds (See H. G. Vogel and W. H. Vogel, Drug Discovery and Evaluation, Pharmacological Assays, Springer-Verlag, 1997, p 304-305). The percentage of drug-treated animals showing the passive behavior (i.e., the immobility that mice display after active and unsuccessful attempts to escape when suspended by the tail) is measured and compared with vehicle-treated control animals. The duration of immobility is recorded for about 5 minutes. Mice are considered immobile when they hang passively and completely motionless for at least 1 minute. Active antidepressants reduce the immobility.
Groups of 9 animals were treated with compounds encompassed by Formula I (0.1-10 mg/kg; s.c.), or fluoxetine (10 mg/kg i.p.), and one group of 15 animals was treated with the vehicle by s.c. injection as a […] control. All animals were treated for 30 min prior to testing. The percentage of drug-treated animals showing passive behavior was determined and compared with vehicle-treated controls. […]

T1 sequence (P23975 whole entry): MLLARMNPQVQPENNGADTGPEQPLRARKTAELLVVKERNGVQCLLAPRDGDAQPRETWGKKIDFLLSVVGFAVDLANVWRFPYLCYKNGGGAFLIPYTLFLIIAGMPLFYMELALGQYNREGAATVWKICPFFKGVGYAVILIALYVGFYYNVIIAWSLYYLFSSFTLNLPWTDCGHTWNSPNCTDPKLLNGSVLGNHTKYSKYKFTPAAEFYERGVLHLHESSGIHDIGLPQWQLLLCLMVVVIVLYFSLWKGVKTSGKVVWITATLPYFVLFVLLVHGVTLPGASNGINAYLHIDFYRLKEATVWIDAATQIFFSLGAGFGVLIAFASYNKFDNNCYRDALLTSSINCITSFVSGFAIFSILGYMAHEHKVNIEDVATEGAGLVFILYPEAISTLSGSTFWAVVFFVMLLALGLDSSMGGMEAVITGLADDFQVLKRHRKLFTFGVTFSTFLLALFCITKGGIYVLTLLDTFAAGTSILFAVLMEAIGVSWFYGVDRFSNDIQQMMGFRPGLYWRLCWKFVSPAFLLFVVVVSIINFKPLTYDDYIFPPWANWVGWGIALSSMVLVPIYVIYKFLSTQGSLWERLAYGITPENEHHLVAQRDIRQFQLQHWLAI

`CCOC(=O)c1cc2c(s1)-c1cc(Cl)cc(OCCCN(C)C)c1Oc1ccccc1-2.O=C(O)CC(O)(CC(=O)O)C(=O)O` [Example 2, 11-Chloro-9-(3-dimethylamino-propoxy)-8-oxa-1-thia-dibenzo[e,h]azulene-2-carboxylic acid ethyl ester citrate salt] had a pKa in data set [1] of 6.9. In data set [2], this compound came in with a lipophilicity (logP) of 4.5. The solubility in data set [3] is 167 mg/mL.

Turning to `COC(=O)[C@H]1[C@@H](c2ccc(I)cc2)C[C@@H]2CC[C@H]1N2C` [[^125I] RTI-55, 3 beta-(4-iodophenyl)tropan-2 beta-carboxylic acid methyl ester], the Kd in data set [4] is 24 nM; in data set [5] (read-out: KD1 of the radioligand), 0.17 nM; in data set [5] (read-out: KD2 of the radioligand), 2200 nM.

As to `CNCCC(Oc1ccc(C(F)(F)F)cc1)c1ccccc1` (stereo not shown) [fluoxetine], the “percentage of animals depressive (exhibiting passive behavior)” value in data set [6] is recorded as 22%.
